Tests used:
Human FXIIa = biological target: T1, Human FXIIa (Homo sapiens, UniProt P00748); assay: Enzyme selectivity evaluation test: FXIIa; format: biochemical
T1 construct: 5) Factor XIIa (FXIIa); purchased Enzyme Research Laboratories
Protocol: (§1) S-2288 (H-D-Ile-Pro-Arg-pNA.2HCl) was added as the substrate at a final concentration of 300 μmol/L. After progression of the reaction, the absorbance was measured at OD 405 nm.

[1] = test system: Rabbit nail bleeding models; assay: Bleeding time evaluation test using rabbit nail bleeding model; format: in vivo; details: for Bleeding time: Experiment 2 (maximum 60 minutes), rabbit; for Bleeding time (fold-increase): Experiment 2, ratio to vehicle group average
Protocol: Rabbit nail bleeding models were prepared by a modification of the report of Wong et al. (Wong P C. et al., J. Thromb. Haemost. 7: 1313-1320 (2009)). Male rabbits (JW, 1.5 to 3.5 kg) were anesthetized by the inhalation of isoflurane (ISOFLU®, manufactured by DS Pharma Animal Health Co., Ltd.) (introduced anesthesia: 4%, continuous anesthesia: 2 to 3%).
(§2) For the intravenous administration of a test drug or a vehicle, an indwelling needle was inserted to the auricular vein, and the test drug or the vehicle was promptly intravenously administered (0.67 mL/kg) and then continuously intravenously administered (1 mL/kg/hr). One hour after the start of administration, three posterior toenails were cut and dipped in saline heated to approximately 37° C., and the bleeding time was measured. The bleeding time was defined as a time from the cutting to the arrest of bleeding, and an average value from the three nails was used. The measurement time was 30 minutes at the maximum for experiment 1 and 60 minutes at the maximum for experiment 2. In each experiment, if bleeding for 30 minutes or 60 minutes or longer was confirmed, the bleeding time was regarded as 30 minutes or 60 minutes.

Human FXa = biological target: T2, Human FXa (Homo sapiens, UniProt P00742); assay: Enzyme selectivity evaluation test: FXa; format: biochemical
T2 construct: 4) Factor Xa (FXa); purchased Enzyme Research Laboratories
Protocol: S-2222 (Bz-Ile-Glu(γ-OR)-Gly-Arg-pNAHC1 (SEQ ID NO: 1), R═H (50%) and R═CH3 (50%)) (manufactured by Chromogenix) was added as the substrate at a final concentration of 150 μmol/L. After progression of the reaction, the absorbance was measured at OD 405 nm.

Human tryptase = assay: Enzyme selectivity evaluation test: tryptase; format: biochemical
Protocol: as §1

Human kallikrein = biological target: T3, Human kallikrein (Homo sapiens, UniProt P03952); assay: Enzyme selectivity evaluation test: plasma kallikrein; format: biochemical
T3 construct: purchased Enzyme Research Laboratories
Protocol: as §1

[2] = test system: Rabbit nail bleeding models; assay: Effect of combined use with antiplatelet drug using rabbit nail bleeding model; format: in vivo; details: alone; for Bleeding time: rabbit, maximum 60 minutes; for Bleeding time (fold-increase): ratio to vehicle group average
Protocol: as §2, with “Rabbit nail bleeding models were prepared by a modification of the report of Wong et al. (Wong P C. et al., J. Thromb. Haemost. 7: 1313-1320 (2009)). Male rabbits (JW, 1.5 to 3.5 kg) were anesthetized by the inhalation of isoflurane (ISOFLU®, manufactured by DS Pharma Animal Health Co., Ltd.) (introduced anesthesia: 4%, continuous anesthesia: 2 to 3%). For” for “For”, “was” for “was 30 minutes at the maximum for experiment 1 and”, “maximum. If” for “maximum for experiment 2. In each experiment, if”, “for” for “for 30 minutes or”, “as” for “as 30 minutes or”

[3] = dose 0.5 + 0.75 mg/kg + mg/kg/h i.v.
[4] = dose 1.5 + 2.25 mg/kg + mg/kg/h i.v.
[5] = dose 5.0 + 7.5 mg/kg + mg/kg/h i.v.
[6] = dose 15 + 22..5 mg/kg + mg/kg/h i.v.

T1 sequence (P00748 373-615 limits assumed): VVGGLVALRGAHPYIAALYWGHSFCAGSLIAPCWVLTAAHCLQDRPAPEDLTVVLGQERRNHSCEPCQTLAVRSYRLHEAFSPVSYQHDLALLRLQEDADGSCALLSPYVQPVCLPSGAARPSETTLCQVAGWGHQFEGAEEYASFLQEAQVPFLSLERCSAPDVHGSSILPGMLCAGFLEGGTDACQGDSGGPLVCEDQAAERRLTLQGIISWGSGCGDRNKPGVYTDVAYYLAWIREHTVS
T1 sequence (P00748 20-372 partner limits assumed): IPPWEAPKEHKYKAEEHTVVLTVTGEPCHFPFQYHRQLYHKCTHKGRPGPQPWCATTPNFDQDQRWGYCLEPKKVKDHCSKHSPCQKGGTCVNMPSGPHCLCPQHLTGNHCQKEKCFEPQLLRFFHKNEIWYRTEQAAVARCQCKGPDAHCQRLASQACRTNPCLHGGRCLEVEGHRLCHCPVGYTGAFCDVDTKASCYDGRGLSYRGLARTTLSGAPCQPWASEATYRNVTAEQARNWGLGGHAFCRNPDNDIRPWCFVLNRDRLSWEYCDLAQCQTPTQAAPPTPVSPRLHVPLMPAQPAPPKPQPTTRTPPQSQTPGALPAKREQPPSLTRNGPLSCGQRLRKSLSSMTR
T3 sequence (P03952 391-638 limits assumed): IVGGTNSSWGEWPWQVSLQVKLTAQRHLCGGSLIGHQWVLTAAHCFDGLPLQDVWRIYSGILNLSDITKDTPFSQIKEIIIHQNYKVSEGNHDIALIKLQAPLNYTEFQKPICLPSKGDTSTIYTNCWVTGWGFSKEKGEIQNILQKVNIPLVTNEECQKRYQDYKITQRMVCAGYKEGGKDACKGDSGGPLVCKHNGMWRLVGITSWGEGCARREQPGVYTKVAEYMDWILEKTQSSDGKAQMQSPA
T3 sequence (P03952 20-390 partner limits assumed): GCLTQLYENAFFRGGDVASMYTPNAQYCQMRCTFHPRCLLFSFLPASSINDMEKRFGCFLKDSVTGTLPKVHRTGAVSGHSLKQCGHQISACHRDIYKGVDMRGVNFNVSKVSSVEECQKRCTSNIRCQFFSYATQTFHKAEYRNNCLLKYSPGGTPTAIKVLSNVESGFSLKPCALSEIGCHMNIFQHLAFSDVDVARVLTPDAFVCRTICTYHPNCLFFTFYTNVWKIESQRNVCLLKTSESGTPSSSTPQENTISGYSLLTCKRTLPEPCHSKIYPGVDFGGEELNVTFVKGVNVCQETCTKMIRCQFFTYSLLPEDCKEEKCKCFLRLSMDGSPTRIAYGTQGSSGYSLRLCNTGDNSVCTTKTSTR
T2 sequence (P00742 235-488 limits assumed): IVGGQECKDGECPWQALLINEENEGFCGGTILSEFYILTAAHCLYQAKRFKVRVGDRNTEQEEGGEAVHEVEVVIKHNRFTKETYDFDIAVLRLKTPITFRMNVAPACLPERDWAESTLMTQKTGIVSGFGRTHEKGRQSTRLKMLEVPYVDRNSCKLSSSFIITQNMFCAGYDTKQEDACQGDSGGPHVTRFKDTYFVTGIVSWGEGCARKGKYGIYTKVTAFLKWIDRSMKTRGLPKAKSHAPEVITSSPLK
T2 sequence (P00742 41-179 partner limits assumed): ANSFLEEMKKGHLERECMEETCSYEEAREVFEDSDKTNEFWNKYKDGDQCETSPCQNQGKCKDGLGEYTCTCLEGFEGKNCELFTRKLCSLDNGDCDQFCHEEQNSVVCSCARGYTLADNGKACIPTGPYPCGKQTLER

Cl.N[C@H](CF)[C@H]1CC[C@H](C(=O)N2CC[C@@H](C3CCCCC3)[C@H]2C(=O)Nc2ccc3[nH]c(C(=O)O)cc3c2)CC1 [Reference Example 2-6, 5-{[(3S)-1-({trans-4-[(1S)-1-Amino-2-fluoroethyl]cyclohexyl}carbonyl)-3-cyclohexyl-L-prolyl]amino}-1H-indole-2-carboxylic acid hydrochloride]
IC50 (Human FXIIa): > 10 µM
Bleeding time [1, 3]: 843 ± 270 s
Bleeding time [1, 4]: 772 ± 234 s
Bleeding time [1, 5]: 768 ± 236 s
Bleeding time [1, 6]: 656 ± 198 s
Bleeding time (fold-increase) [1, 3]: 1.5 ± 0.5 fold-increase
Bleeding time (fold-increase) [1, 4]: 1.3 ± 0.4 fold-increase
Bleeding time (fold-increase) [1, 5]: 1.3 ± 0.4 fold-increase
Bleeding time (fold-increase) [1, 6]: 1.1 ± 0.3 fold-increase
IC50 (Human FXa): > 10 µM
IC50 (Human tryptase): > 10 µM
IC50 (Human kallikrein): 0.43 µM
Bleeding time [2, 4]: 772 ± 234 s
Bleeding time [2, 5]: 768 ± 236 s
Bleeding time (fold-increase) [2, 4]: 1.3 ± 0.4 fold-increase
Bleeding time (fold-increase) [2, 5]: 1.3 ± 0.4 fold-increase
